Data taken from patent US7754722B2, “Piperazine derivatives and methods of use” (Merck Serono SA, priority 2002, dated 2010).

Biological target: T1, FSH receptor (Homo sapiens, UniProt P23945)
T1 construct: expressed in transfected cells; host or cells: CHO (Chinese Hamster Ovary) cells, stably transfected, carrying a cAMP response element-luciferase reporter
T1 sequence (P23945 18-695): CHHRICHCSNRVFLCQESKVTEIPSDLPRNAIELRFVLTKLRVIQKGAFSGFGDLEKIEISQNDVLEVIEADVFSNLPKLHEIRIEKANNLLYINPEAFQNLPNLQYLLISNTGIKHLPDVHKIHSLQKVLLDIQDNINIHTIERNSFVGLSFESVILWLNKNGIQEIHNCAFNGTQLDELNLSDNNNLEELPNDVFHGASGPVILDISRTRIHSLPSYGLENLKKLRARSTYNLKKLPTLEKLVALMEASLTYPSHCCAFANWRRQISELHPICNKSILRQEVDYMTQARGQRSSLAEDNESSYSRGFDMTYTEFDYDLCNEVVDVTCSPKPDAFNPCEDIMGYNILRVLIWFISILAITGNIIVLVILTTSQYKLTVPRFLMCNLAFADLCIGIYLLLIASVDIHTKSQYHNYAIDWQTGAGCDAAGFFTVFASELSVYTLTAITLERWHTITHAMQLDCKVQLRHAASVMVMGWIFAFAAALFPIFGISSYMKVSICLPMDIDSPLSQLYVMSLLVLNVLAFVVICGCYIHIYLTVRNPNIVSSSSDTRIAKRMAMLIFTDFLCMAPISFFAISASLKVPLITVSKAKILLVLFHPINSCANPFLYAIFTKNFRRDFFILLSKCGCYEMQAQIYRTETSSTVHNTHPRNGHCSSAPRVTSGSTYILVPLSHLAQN
Assay: FSH assay: cAMP response element luciferase reporter in CHO cells expressing recombinant FSH receptor
Assay type: cell-based
Details: agonist activity; CHO cells stably transfected with recombinant FSH receptor; luciferase luminescence; log-dose-response curves; incubation 37° C. for 3 hrs 30 min; read-out: ED50 (the source's name)
Description: Compounds of the invention were tested in the following assay.
All compounds of the invention were stored in 96-well deepwell plates in DMSO at a nominal concentration of 10 μM. Compounds of the invention were screened for agonist activity at the FSH receptor using the recombinant FSH receptor stably transfected and expressed in Chinese Hamster Ovary Cells (CHO cells) essentially as described in the work by Kelton, et al. Molecular and Cellular Endocrinology, 1992, 89, 141-151). […] Thus an agonist at the FSH receptor increases cAMP in the cell which results in activation of the CREB (cAMP) response element binding protein). The substrate for the enzyme (Packard Instrument Company 800 Research Parkway, Meriden, Conn. 06450, USA) was added to the cells after appropriate incubation with the compounds or FSH and the amount of luciferase expressed was measured by quantitating the luminescence produced by the enzyme using a TopCount scintillation/luminescence counter running in single photon counting mode. A compound which acts as an agonist at the receptor should produce light from the treated cells in proportion to its concentration within the incubation. Luminescence should be saturable at high concentrations of the compound.
The compounds of the invention, in deepwell plates (Master plates) as indicated above were loaded on the robotic deck along with the appropriate number of assay plates and daughter plates. A 10 μl aliquot from each master plate was transferred to the corresponding daughter plate and 90 μl of DME/F12 was added and mixed within each well. 20 μl was then removed from the daughter plate and dispensed into the assay plate. After addition of an aliquot of FSH (equivalent to an EC100 response for this hormone to each of three wells on the plate, 80 μl of media (DME/F 12±2% serum) and 100 μl aliquot of cells (4×10^5/ml in the same media) were added and the plate incubated at 37° C. for 3 hrs 30 min. At this time the plate was removed from the incubator and media in each well was aspirated and the cells adhering to the bottom of the plate washed with 300 μl PBS containing 1 mM Ca^2+ and 1 mM Mg^2+. The PBS was aspirated and 100 μl PBS added to each well. 100 μl of Lucite (prepared as described by the manufacturer) was added to each well and the plate was shaken gently for 40 seconds prior to placement in the TopCount plate reader. After allowing 3.5 minutes for the plate to dark-adapt within the machine, the amount of luminescence generated was quantitated using Single Photon Counting mode. The data was transmitted electronically from the TopCount to the robot processing computer terminal and was renamed with an ID corresponding to the original master plate ID. […] LDR (log-dose-response) curves were generated for these compounds in CHO cells containing the FSH receptor and these curves were also compared with those in either cells expressing a different Gs linked receptor or in cells lacking any transfected receptor.

EC50 [nM] | SMILES
1600 | CCc1cocc1CN1CCN(S(=O)(=O)c2cccs2)[C@H](C(=O)Nc2ccc3c(c2)c2ccccc2n3CC)C1 [4-(4-ethyl-furan-3-ylmethyl)-1-(thiophene-2-sulfonyl)-piperazine-2-carboxylic acid (9-ethyl-9H-carbazol-3-yl)-amide]
1610 | CCn1c2ccccc2c2cc(NC(=O)[C@@H]3CN(C(=O)NCCOC)CCN3S(=O)(=O)c3cccs3)ccc21 [4-(thiophene-2-sulfonyl)-piperazine-1,3-dicarboxylic acid 3-[(9-ethyl-9H-carbazol-3-yl)-amide]1-{(2-methoxy-ethyl)-amide]]
111 | CCCCCCN1CCN(S(=O)(=O)c2cccs2)[C@H](C(=O)Nc2ccc3c(c2)nc(-c2ccncc2)n3CC)C1 [4-hexyl-1-(thiophene-2-sulfonyl)-piperazine-2-carboxylic acid (1-ethyl-2-pyridin-4-yl-1H-benzoimidazol-5-yl)amide]
220 | CCCCCN1CCN(S(=O)(=O)c2cccs2)C(C(=O)Nc2ccc3[nH]c4c(c3c2)CCNC4=O)C1 (stereo not drawn) [4-pentyl-1-(thiophene-2-sulfonyl)-piperazine-2-carboxylic acid (1-oxo-2,3,4,9-tetrahydro-1H-beta-carbolin-6-yl)amide]
150 | CCCCCCN1CCN(S(=O)(=O)c2ccccc2)[C@H](C(=O)Nc2ccc3c(c2)nc(-c2cccnc2)n3CC)C1 [1-benzenesulfonyl-4-hexyl-piperazine-2-carboxylic acid (1-ethyl-2-pyridin-3-yl-1H-benzoimidazol-5-yl)amide]
40 | CCCCCCN1CCN(S(=O)(=O)c2cccs2)[C@H](C(=O)Nc2ccc3c(c2)nc(-c2cccnc2)n3CC)C1 [4-hexyl-1-(thiophene-2-sulfonyl)-piperazine-2-carboxylic acid (1-ethyl-2-pyridinyl-3-yl-1H-benzoimidazole-5-yl)-amide)]
63 | CCCCCNC(=O)N1CCN(S(=O)(=O)c2cccs2)[C@H](C(=O)Nc2ccc3c(c2)c2ccccc2n3CC)C1 [4-(thiophene-2-sulfonyl)-piperazine-1,3-dicarboxylic acid 3-[(9-ethyl-9H-carbazol-3-yl)amide]-1-pentylamide]
74 | CCCCCCN1CCN(S(=O)(=O)c2ccccc2F)[C@H](C(=O)Nc2ccc3c(c2)nc(-c2cccnc2)n3CC)C1 [1-(2-fluoro-benzenesulfonyl)-4-hexyl-piperazine-2-carboxylic acid (1-ethyl-2-pyridin-3-yl-1H-benzoimidazol-5-yl)amide]
242 | CCCCCCN1CCN(S(=O)(=O)N(C)C)C(C(=O)Nc2ccc3c(c2)nc(-c2cccnc2)n3CC)C1 (centres unmarked) [1-dimethylsulfamoyl-4-hexyl-piperazine-2-carboxylic acid (1-ethyl-2-pyridin-3-yl-1H-benzoimidazol-5-yl) amide]
6470 | CCn1c2ccccc2c2cc(NC(=O)[C@@H]3CN(C(=O)NCCCn4ccnc4)CCN3S(=O)(=O)c3cccs3)ccc21 [4-(thiophene-2-sulfonyl)-piperazine-1,3-dicarboxylic acid 3-[(9-ethyl-9H-carbazol-3-yl)-amide]1-[(3-imidazol-1-yl-propyl)-amide])]
167 | CCCCCCN1CCN(S(=O)(=O)c2ccc(F)cc2)[C@H](C(=O)Nc2ccc3c(c2)nc(-c2cccnc2)n3CC)C1 [1-(4-fluoro-benzenesulfonyl)-4-hexyl-piperazine-2-carboxylic acid (1-ethyl-2-pyridin-3-yl-1H-benzoimidazol-5-yl)amide]
1200 | CCCCCCCN1CCN(S(=O)(=O)c2cccs2)C(C(=O)Nc2ccc3[nH]c4c(c3c2)CCNC4=O)C1 (stereo not drawn) [4-heptyl-1-(thiophene-2-sulfonyl)-piperazine-2-carboxylic acid (1-oxo-2,3,4,9-tetrahydro-1H-beta-carbolin-6-yl)amide]
402 | CCCCC(=O)N1CCN(S(=O)(=O)c2cccs2)[C@H](C(=O)Nc2ccc3c(c2)c2ccccc2n3CC)C1 [4-pentanoyl-1-(thiophene-2-sulfonyl)-piperazine-2-carboxylic acid (9-ethyl-9H-carbazol-3-yl) amide]
6250 | CCn1c2ccccc2c2cc(NC(=O)[C@@H]3CN(C(=O)NCCc4c[nH]cn4)CCN3S(=O)(=O)c3cccs3)ccc21 [4-(thiophene-2-sulfonyl)-piperazine-1,3-dicarboxylic acid 3-[(9-ethyl-9H-carbazol-3-yl)-amide] 1-{[2-(1H-imidazol-4-yl)-ethyl]-amide}]
978 | CCCCCCN1CCN(S(=O)(=O)c2cccs2)[C@H](C(=O)Nc2ccc3[nH]c4c(c3c2)CCNC4=O)C1 [4-hexyl-1-(thiophene-2-sulfonyl)-piperazine-2-carboxylic acid (1-oxo-2,3,4,9-tetrahydro-1H-beta-carbolin-6-yl)-amide]
150 | CCCCCN1CCN(S(=O)(=O)c2cccs2)[C@H](C(=O)Nc2ccc3c(c2)nc(-c2cccnc2)n3CC)C1 [4-pentyl-1-thiophene-2-sulfonyl)-piperazine-2-carboxylic acid (1-ethyl-2-pyridin-3-yl-1H-benzoimidazol-5-yl)amide]
408 | CCOC(=O)CNC(=O)N1CCN(S(=O)(=O)c2cccs2)[C@H](C(=O)Nc2ccc3c(c2)c2ccccc2n3CC)C1 [{[3-(9-ethyl-9H-carbazol-3-ylcarbamoyl)-4-(thiophene-2-sulfonyl)-piperazine-1-carbonyl]-amino}acetic acid ethyl ester]
3160 | CCCCCNC(=O)N1CCN(S(=O)(=O)c2cn(C)cn2)[C@H](C(=O)Nc2ccc3c(c2)c2ccccc2n3CC)C1 [4-(1-methyl-1H-imidazole-4-sulfonyl)-piperazine-1,3-dicarboxylic acid 3-[(9-ethyl-9H-carbazol-3-yl)-amide]1-pentylamide]
380 | CCCCCCN1CCN(S(=O)(=O)c2cccs2)[C@H](C(=O)Nc2ccc3c(c2)c2ccccc2n3CC)C1 [4-hexyl-1-(thiophene-2-sulfonyl)-piperazine-2-carboxylic acid (9-ethyl-9H-carbazol-3-yl) amide]
53 | CCCCCCCN1CCN(S(=O)(=O)c2cccs2)[C@H](C(=O)Nc2ccc3c(c2)nc(-c2ccncc2)n3CC)C1 [4-heptyl-1-(thiophene-2-sulfonyl)-piperazine-2-carboxylic acid (1-ethyl-2-pyridin-4-yl-1H-benzoimidazol-5-yl)amide]
1700 | CCn1c2ccccc2c2cc(NC(=O)[C@@H]3CN(CCCSC)CCN3S(=O)(=O)c3cccs3)ccc21 [4-(3-methylsulfanyl-propyl)-1-(thiophene-2-sulfonyl)-piperazine-2-carboxylic acid (9-ethyl-9H-carbazol-3-yl)-amide]
5000 | CCCCCNC(=O)N1CCN(S(=O)(=O)c2cccs2)[C@H](C(=O)Nc2cccc(-c3ccncc3)c2)C1 [4-(thiophene-2-sulfonyl)-piperazine-1,3-dicarboxyclic acid 1-pentylamide 3-[(3-pyridin-4-yl-phenyl)-amide]]
877 | CCNC(=O)N1CCN(S(=O)(=O)c2cccs2)[C@H](C(=O)Nc2ccc3c(c2)c2ccccc2n3CC)C1 [4-(thiophene-2-sulfonyl)-piperazine-1,3-dicarboxylic acid 1-ethylamide 3-[(9-ethyl-9H-carbazol-3-yl)amide]]
